Data as given in patent US20250263396A1, “CRYSTALLINE FORMS OF 3-(5-(2-HYDROXY-2- METHYLPROPOXY)-6-METHYPYRAZIN-2-YL)-1H-INDOLE-7-CARBONITRILE” (NIDO BIOSCIENCES, INC., priority 2024, published 2025).
Where two headings read alike, the source gives them in different places.

Legend:
[1] = Hygroscopicity by dynamic vapor sorption (DVS); assay type: physicochemical
Experimental: Dynamic vapor sorption (DVS) was performed on an Intrinsic, Advantage or Adventure with an oven temperature of 25° C. using water as a solvent. The sample mass was about 5-10 mg using the following method: • Cycle: 40-0-95-0-40% RH • Stage Step: 10% • Equilibrium: 0.002 dm/dt (%/min) • Minimum dm/dt stability duration: 60 min • Maximum dm/dt stage time: 360 min.
Hygroscopicity of Form P was evaluated by dynamic vapor sorption (DVS) test at 25° C. Form P is non-hygroscopic at 80% RH; about 0.1% water uptake at 80% RH. Form P is slightly hygroscopic from 80% RH-95% RH: About 1.6% water uptake from 80% RH to 95% RH.

[2] = Wet granulation simulation experiments; assay type: physicochemical
Experimental: Water or ethanol was added drop wise to about 10 mg of Form P until the sample is wetted sufficiently. Wet sample was ground gently with in a mortar and a pestle. Post granulation sample was dried under ambient condition for 10 min.
Water or ethanol was added drop wise to about 10 mg of Form C until the sample is wetted sufficiently. Wet sample was ground gently with in a mortar and a pestle. Post granulation sample was dried under ambient condition for 5 min.

[3] = Form change on heating, dehydration or desolvation (TGA, DSC, variable temperature XRPD); assay type: physicochemical; settings: heated above 176° C. using milled Form P, variable temperature XRPD
Experimental: Relative stability of the anhydrates Form R and Form P was investigated by variable temperature XRPD and competitive equilibration experiments.
Relative stability of the anhydrates Form B, Form X, Form Y and Form C was investigated by variable temperature XRPD. Form B converted to Form X, Form Y and Form C after heating to 150° C., 176° C. and 180° C., respectively.

[4] = 24 hours; for XRPD: residual solids; for pH: supernatant
Experimental: Non-milled Form P (10 mg, purity 100%) was weighed into a 20 mL glass vial. 5 mL of solubility medium was added. Obtained suspensions were stirred at 37° C. at 400 rpm and sampled at 24 hours. The samples were centrifuged at 37 C at 14,000 rpm for 5 min. Supernatants were analyzed by HPLC and pH meter for solubility and pH value, respectively. Residual solids (wet cakes) from the 24 hours samples were also characterized by XRPD to determine physical form.

[5] = Solid state
Experimental: Bulk stability of Form P was evaluated at 25° C./92% RH in an open container, at 40° C./75% RH in an open container and at 60° C. in a tight container over 1 week, 2 weeks and 4 weeks. […] Samples after the stress were characterized by XRPD and HPLC and inspected for color change. Form P was also stressed under visible light for 1.2 million lux-hrs. at 25° C. Samples after the stress were characterized by XRPD and HPLC and inspected for color change.

[6] = wet cake in sealed bottle
Experimental: Wet cake chemical stability of Form P at 40° C., 50° C., 60° C. was evaluated.

[7] = cake dried under vacuum
Description: The cake of Form P was dried under vacuum at different temperatures to evaluate the chemical stability of dry cake.

physchem = settings: water, thermodynamic from solid, Approximate solubility
Experimental: Form P (5 mg, purity 100%) was weighed to a 2 mL glass vial. 20 μL aliquots of each solvent were added to dissolve the drug substance at 25 C. […] Vortex and sonication were applied to assist dissolution. Max. volume of each solvent added is 1 mL. For obtained suspensions (Exp. ID 1, 10 and 11) after addition of 1 mL solvent at 25° C., they were placed at 50° C. Approximate solubility was determined by visual observation.

[8] = 10% relative humidity at 25° C.
[9] = 20% relative humidity at 25° C.
[10] = 30% relative humidity at 25° C.
[11] = 40% relative humidity at 25° C.
[12] = 50% relative humidity at 25° C.
[13] = 60% relative humidity at 25° C.
[14] = 70% relative humidity at 25° C.
[15] = 80% relative humidity at 25° C.
[16] = 90% relative humidity at 25° C.
[17] = 95% relative humidity at 25° C.
[18] = pH 1.2 HCl buffer (0.1N), 37° C.
[19] = pH 3 citrate buffer (50 mM), 37° C.
[20] = pH 5 acetate buffer (50 mM), 37° C.
[21] = pH 7 phosphate buffer (50 mM), 37° C.
[22] = 25° C./92.5% RH, open container, 1 week
[23] = 25° C./92.5% RH, open container, 2 weeks
[24] = 25° C./92.5% RH, open container, 4 weeks
[25] = 40° C./75% RH, open container, 1 week
[26] = 40° C./75% RH, open container, 2 weeks
[27] = 40° C./75% RH, open container, 4 weeks
[28] = 60° C., tight container, 1 week
[29] = 60° C., tight container, 2 weeks
[30] = 60° C., tight container, 4 weeks
[31] = photo (visible light, closed, 1.2 million lux-hrs at 25° C.), clear vial
[32] = photo (visible light, closed, 1.2 million lux-hrs at 25° C.), wrapped with aluminum foil

Compound: Cc1nc(-c2c[nH]c3c(C#N)cccc23)cnc1OCC(C)(C)O [Form P, 3-(5-(2-hydroxy-2-methylpropoxy)-6-methylpyrazin-2-yl)-1H-indole-7-carbonitrile]
- 1st desorp. Weight % change ([1]; 0% relative humidity at 25° C.): 0.1%
- 1st sorp. Weight % change ([1]; 0% relative humidity at 25° C.): 0.1%
- 2nd desorp. Weight % change ([1]; 0% relative humidity at 25° C.): 0.0%
- 2nd sorp. Weight % change ([1]; 0% relative humidity at 25° C.): 0.0%
- 1st desorp. Weight % change [1, 8]: 0.1%
- 1st sorp. Weight % change [1, 8]: 0.1%
- 2nd desorp. Weight % change [1, 8]: 0.0%
- 2nd sorp. Weight % change [1, 8]: 0.0%
- 1st desorp. Weight % change [1, 9]: 0.1%
- 1st sorp. Weight % change [1, 9]: 0.1%
- 2nd desorp. Weight % change [1, 9]: 0.0%
- 2nd sorp. Weight % change [1, 9]: 0.0%
- Form after the DVS test ([1]; 25° C.): still in Form P
- 1st desorp. Weight % change [1, 10]: 0.2%
- 1st sorp. Weight % change [1, 10]: 0.1%
- 2nd desorp. Weight % change [1, 10]: 0.1%
- 2nd sorp. Weight % change [1, 10]: 0.0%
- 1st desorp. Weight % change [1, 11]: 0.2%
- 1st sorp. Weight % change [1, 11]: 0.1%
- 2nd desorp. Weight % change [1, 11]: 0.1%
- 2nd sorp. Weight % change [1, 11]: 0.0%
- 1st sorp. Weight % change [1, 12]: 0.1%
- 2nd desorp. Weight % change [1, 12]: 0.1%
- 1st sorp. Weight % change [1, 13]: 0.1%
- 2nd desorp. Weight % change [1, 13]: 0.2%
- 1st sorp. Weight % change [1, 14]: 0.1%
- 2nd desorp. Weight % change [1, 14]: 0.3%
- 1st sorp. Weight % change [1, 15]: 0.2%
- 2nd desorp. Weight % change [1, 15]: 0.4%
- 1st sorp. Weight % change [1, 16]: 0.8%
- 2nd desorp. Weight % change [1, 16]: 0.9%
- 1st sorp. Weight % change [1, 17]: 1.8%
- 2nd desorp. Weight % change [1, 17]: 1.8%
- Hygroscopicity ([1]; at 80% RH, 25° C.): non-hygroscopic (water uptake <0.2% = non-hygroscopic)
- water uptake ([1]; at 80% RH, 25° C.): about 0.1%
- water uptake ([1]; from 80% RH to 95% RH, 25° C.): About 1.6%
- Hygroscopicity ([1]; from 80% RH-95% RH, 25° C.): slightly hygroscopic (water uptake ≥0.2% but <2% = slightly hygroscopic)
- Comments (crystallinity) ([2]; granulation solvent Ethanol): No obvious change in crystallinity
- XRPD ([2]; granulation solvent Ethanol): Form P
- Comments (crystallinity) ([2]; granulation solvent Water): No obvious change in crystallinity
- XRPD ([2]; granulation solvent Water): Form P
- Form after heating [3]: converted to Form R
- XRPD ([4]; FaSSGF, pH 1.6, 37° C.): Form P
- XRPD ([4]; FaSSIF-v1, pH 6.5, 37° C.): Form P
- XRPD ([4]; FeSSIF-v1, pH 5.0, 37° C.): Form P
- XRPD ([4]; Water, 37° C.): Form P
- XRPD [4, 18]: Form P
- XRPD [4, 19]: Form P
- XRPD [4, 20]: Form P + one additional peak (It
- XRPD [4, 21]: Form P
- pH ([4]; FaSSGF, pH 1.6, 37° C.): 1.5
- pH ([4]; FaSSIF-v1, pH 6.5, 37° C.): 6.4
- pH ([4]; FeSSIF-v1, pH 5.0, 37° C.): 4.9
- pH ([4]; Water, 37° C.): 7.7
- pH [4, 18]: 1.1
- pH [4, 19]: 3.0
- pH [4, 20]: 4.9
- pH [4, 21]: 6.9
- Bulk (XRPD) [5, 22]: No form change
- Color [5, 22]: No color change
- Purity, Bulk (HPLC) [5, 22]: 100%
- Bulk (XRPD) [5, 23]: No form change
- Color [5, 23]: No color change
- Purity, Bulk (HPLC) [5, 23]: 100%
- Bulk (XRPD) [5, 24]: No form change
- Color [5, 24]: No color change
- Purity, Bulk (HPLC) [5, 24]: 100%
- Bulk (XRPD) [5, 25]: No form change
- Color [5, 25]: No color change
- Purity, Bulk (HPLC) [5, 25]: 100%
- Bulk (XRPD) [5, 26]: No form change
- Color [5, 26]: No color change
- Purity, Bulk (HPLC) [5, 26]: 100%
- Bulk (XRPD) [5, 27]: No form change
- Color [5, 27]: No color change
- Purity, Bulk (HPLC) [5, 27]: 100%
- Bulk (XRPD) [5, 28]: No form change
- Color [5, 28]: No color change
- Purity, Bulk (HPLC) [5, 28]: 99.9%
- Bulk (XRPD) [5, 29]: No form change
- Color [5, 29]: No color change
- Purity, Bulk (HPLC) [5, 29]: 100%
- Bulk (XRPD) [5, 30]: No form change
- Color [5, 30]: No color change
- Purity, Bulk (HPLC) [5, 30]: 100%
- Bulk, clear vial (XRPD) [5, 31]: No form change
- Color [5, 31]: medium discoloration
- Purity, Bulk, clear vial (HPLC) [5, 31]: ~60%
- Color [5, 32]: No color change
- Purity, Bulk, wrapped with aluminum foil (HPLC) [5, 32]: 100%
- Purity after holding ([6]; 0 h): Purity: 100%
- Purity after holding ([6]; 40° C., 22 h): 100%
- Purity after holding ([6]; 40° C., 4 d): 100%
- Purity after holding ([6]; 50° C., 22 h): 100%
- Purity after holding ([6]; 50° C., 4 d): 100%
- Purity after holding ([6]; 60° C., 22 h): 100%
- Purity after holding ([6]; 60° C., 4 d): 100%
- Purity after holding ([7]; 0 h): Purity: 100%
- Purity after holding ([7]; 40° C., 22 h): 100%
- Purity after holding ([7]; 40° C., 4 d): 100%
- Purity after holding ([7]; 50° C., 22 h): 100%
- Purity after holding ([7]; 50° C., 4 d): 100%
- Purity after holding ([7]; 60° C., 22 h): 100%
- Purity after holding ([7]; 60° C., 4 d): 100%
- solubility (physchem; 25 °C): < 5000 µg/mL
- solubility (physchem; 50 °C): < 5000 µg/mL
